Row | Compound | melting point [°C]
1 | O=C(O)Cc1ccc(OCCCc2cc(-c3ccc(C(F)(F)F)cc3)no2)cc1 [Example 1, [4-(3-{3-[4-(trifluoromethyl)phenyl]-5-isoxazolyl}propoxy)phenyl]acetic acid] | 127 to 128
2 | O=C(O)c1ccc(OCCCc2cc(-c3ccc(C(F)(F)F)cc3)no2)cc1 [Example 2, 4-(3-{3-[4-(trifluoromethyl)phenyl]-5-isoxazolyl}propoxy)benzoic acid] | 221 to 222
3 | O=C(O)CCc1cc(OCCCCc2cc(-c3ccc(C(F)(F)F)cc3)no2)nn1-c1ccccc1 [Example 11, 3-[1-phenyl-3-(4-{3-[4-(trifluoromethyl)phenyl]-5-isoxazolyl}butoxy)-1H-pyrazol-5-yl]propionic acid] | 139 to 140
4 | O=C(O)c1ccc(OCCCCc2cc(-c3ccc(C(F)(F)F)cc3)no2)cc1 [Example 12, 4-(4-{3-[4-(trifluoromethyl)phenyl]-5-isoxazolyl}butoxy)benzoic acid] | 170 to 171
5 | O=C(O)Cc1ccc(OCCCCc2cc(-c3ccc(C(F)(F)F)cc3)no2)cc1 [Example 13, [4-(4-{3-[4-(trifluoromethyl)phenyl]-5-isoxazolyl}butoxy)phenyl]acetic acid] | 125 to 126
6 | O=C(O)CCc1ccc(OCCCCc2cc(-c3ccc(C(F)(F)F)cc3)no2)cc1 [Example 14, 3-[4-(4-{3-[4-(trifluoromethyl)phenyl]-5-isoxazolyl}butoxy)phenyl]propionic acid] | 130 to 131
7 | CC(C)(Oc1ccc(OCCCCc2cc(-c3ccc(C(F)(F)F)cc3)no2)cc1)C(=O)O [Example 15, 2-methyl-2-[4-(4-{3-[4-(trifluoromethyl)phenyl]-5-isoxazolyl}butoxy)phenoxy]propionic acid] | 103 to 104

The remaining lines, values ahead:

Row | melting point [°C] | Compound
8 | 126 to 127 | O=C(O)Cc1cccc(OCCCc2cc(-c3ccc(C(F)(F)F)cc3)no2)c1 [Example 3, [3-(3-{3-[4-(trifluoromethyl)phenyl]-5-isoxazolyl}propoxy)phenyl]acetic acid]
9 | 133 to 134 | O=C(O)c1cccc(OCCCc2cc(-c3ccc(C(F)(F)F)cc3)no2)c1 [Example 4, 3-(3-{3-[4-(trifluoromethyl)phenyl]-5-isoxazolyl}propoxy)benzoic acid]
10 | 174 to 175 | O=C(O)CCc1ccc(OCCCc2cc(-c3ccc(C(F)(F)F)cc3)no2)cc1 [Example 5, 3-[4-(3-{3-[4-(trifluoromethyl)phenyl]-5-isoxazolyl}propoxy)phenyl]propionic acid]
11 | 132 to 133 | O=C(O)c1ccccc1OCCCc1cc(-c2ccc(C(F)(F)F)cc2)no1 [Example 6, 2-(3-{3-[4-(trifluoromethyl)phenyl]-5-isoxazolyl}propoxy)benzoic acid]
12 | 162 to 163 | Cn1nc(OCCCc2cc(-c3ccc(C(F)(F)F)cc3)no2)cc1C(=O)O [Example 7, 1-methyl-3-(3-{3-[4-(trifluoromethyl)phenyl]-5-isoxazolyl}propoxy)-1H-pyrazole-5-carboxylic acid]
13 | 145 to 146 | O=C(O)c1cc(OCCCc2cc(-c3ccc(C(F)(F)F)cc3)no2)nn1-c1ccccc1 [Example 8, 1-phenyl-3-(3-{3-[4-(trifluoromethyl)phenyl]-5-isoxazolyl}propoxy)-1H-pyrazole-5-carboxylic acid]
14 | 195 to 196 | Cc1nn(-c2ccc(C(F)(F)F)cn2)cc1COc1ccc(CCC(=O)O)cc1 [Example 9, 3-(4-{3-methyl-1-[5-(trifluoromethyl)-2-pyridyl]-1H-pyrazol-4-ylmethoxy}phenyl)propionic acid]
15 | 138 to 139 | Cc1nn(-c2ccc(C(F)(F)F)cn2)cc1COc1ccc(OCC(=O)O)cc1 [Example 10, (4-{3-methyl-1-[5-(trifluoromethyl)-2-pyridyl]-1H-pyrazol-4-ylmethoxy}phenoxy)acetic acid]

— patent US20060148858A1, “1, 2-Azole derivatives with hypoglycemic and hypolipidemic activity” (priority 2002, published 2006)
